In patent US20240109917A1 (ACTELION PHARMACEUTICALS LTD, priority 2020, published 2024) one finds IC50 data, which are given here for 9 molecules.

The test deals with His6-TEV-PDGFRβ (557-1016) (Homo sapiens (Human), UniProt P09619). Kind of test: PDGFRβ HTRF Assay. The note with it: read-out: PDGFR HTRF IC50. Type of test: biochemical. The gist of the method: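 HTRF KinEASE-TK readout (665/620 nm ratio) of TK-biotin substrate phosphorylation by His-tagged PDGFRβ kinase domain. Enzyme and inhibitor preincubated 30 min, then ATP/substrate added for 3 h at room temperature before 60 min EDTA quench/detection.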
Background: TR-FRET usually uses a lanthanide donor and a delayed reading to cut background.

Chain of His6-TEV-PDGFRβ (557-1016) (P09619 557-1016): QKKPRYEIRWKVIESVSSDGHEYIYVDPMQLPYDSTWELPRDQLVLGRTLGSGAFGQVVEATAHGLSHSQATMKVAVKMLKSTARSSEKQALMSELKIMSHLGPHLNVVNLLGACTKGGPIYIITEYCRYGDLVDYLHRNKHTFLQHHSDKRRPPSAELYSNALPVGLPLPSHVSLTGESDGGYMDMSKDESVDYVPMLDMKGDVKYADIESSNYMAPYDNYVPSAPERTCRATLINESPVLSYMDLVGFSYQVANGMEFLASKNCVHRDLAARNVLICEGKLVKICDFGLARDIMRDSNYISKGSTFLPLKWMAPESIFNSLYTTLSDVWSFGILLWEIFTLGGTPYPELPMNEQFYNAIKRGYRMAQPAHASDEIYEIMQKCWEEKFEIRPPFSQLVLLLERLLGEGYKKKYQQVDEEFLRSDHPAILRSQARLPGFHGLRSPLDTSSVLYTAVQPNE

Take `Cc1ncc(C(=O)NCCN2CC3CCC2CC3)cc1NC(=O)c1cnn2cc(-c3ccnc(N4CCOCC4)c3)sc12` [Example 484, N-(5-((2-(2-azabicyclo[2.2.2]octan-2-yl)ethyl)carbamoyl)-2-methylpyridin-3-yl)-2-(2-morpholinopyridin-4-yl)pyrazolo[5,1-b]thiazole-7-carboxamide]: the half-inhibitory concentration (IC50) (as a rule, the midpoint of a concentration-inhibition curve) turned out to be 0.2 nM.
Then `COCCn1cc(-c2cn3ncc(C(=O)Nc4cc(NC(=O)C[C@H]5CCCN5C(C)C)cnc4C)c3s2)cn1` [Example 485, (R)—N-(5-(2-(1-isopropylpyrrolidin-2-yl)acetamido)-2-methylpyridin-3-yl)-2-(1-(2-methoxyethyl)-1H-pyrazol-4-yl)pyrazolo[5,1-b]thiazole-7-carboxamide], with 0.8 nM; and `COCCn1cc(-c2cn3ncc(C(=O)Nc4cc(NC(=O)C[C@H]5CCN(C(C)C)C5)cnc4C)c3s2)cn1` [Example 486, (R)—N-(5-(2-(1-isopropylpyrrolidin-3-yl)acetamido)-2-methylpyridin-3-yl)-2-(1-(2-methoxyethyl)-1H-pyrazol-4-yl)pyrazolo[5,1-b]thiazole-7-carboxamide], with 2.6 nM; and `COCCn1cc(-c2cn3ncc(C(=O)Nc4cc(NC(=O)C5(CN6CCCC6(C)C)CC5)cnc4C)c3s2)cn1` [Example 487, N-(5-(1-((2,2-dimethylpyrrolidin-1-yl)methyl)cyclopropane-carboxamido)-2-methylpyridin-3-yl)-2-(1-(2-methoxyethyl)-1H-pyrazol-4-yl)pyrazolo[5,1-b]thiazole-7-carboxamide], with 7.7 nM.
Then `COCCn1cc(-c2cn3ncc(C(=O)Nc4cc(NC(=O)C(C)(C)CN5CCCC5(C)C)cnc4C)c3s2)cn1` [Example 488, N-(5-(3-(2,2-dimethylpyrrolidin-1-yl)-2,2-dimethyl-propanamido)-2-methylpyridin-3-yl)-2-(1-(2-methoxyethyl)-1H-pyrazol-4-yl)pyrazolo[5,1-b]thiazole-7-carboxamide], with 92.3 nM; and `Cc1ncc(NC(=O)CNCC(C)C)cc1NC(=O)c1cnn2cc(-c3cnn4c3CCC4)sc12` [Example 493, 2-(5,6-dihydro-4H-pyrrolo[1,2-b]pyrazol-3-yl)-N-(5-(2-(isobutylamino)acetamido)-2-methylpyridin-3-yl)pyrazolo[5,1-b]thiazole-7-carboxamide], with 0.2 nM.
Then `Cc1ncc(NC(=O)CNC2CCC2)cc1NC(=O)c1cnn2cc(-c3cnn4c3OCCC4)sc12` [Example 494, N-(5-(2-(cyclobutylamino)acetamido)-2-methylpyridin-3-yl)-2-(6,7-dihydro-5H-pyrazolo[5,1-b][1,3]oxazin-3-yl)pyrazolo[5,1-b]thiazole-7-carboxamide], with 0.4 nM.
On to `Cc1ncc(NC(=O)CNC2(C)CCC2)cc1NC(=O)c1cnn2cc(-c3cnn4c3OCCC4)sc12` [Example 495, 2-(6,7-dihydro-5H-pyrazolo[5,1-b][1,3]oxazin-3-yl)-N-(2-methyl-5-(2-((1-methylcyclobutyl)amino)acetamido)pyridin-3-yl)pyrazolo[5,1-b]thiazole-7-carboxamide], for which the IC50 was determined as 0.3 nM.
The result for `Cc1ncc(NC(=O)OC[C@@H]2CCCN2C)cc1NC(=O)c1cnn2cc(-c3cn(C)nc3C)sc12` [Example 496, (S)-(1-methylpyrrolidin-2-yl)methyl (5-(2-(1,3-dimethyl-1H-pyrazol-4-yl)pyrazolo[5,1-b]thiazole-7-carboxamido)-6-methylpyridin-3-yl)carbamate] reads 0.3 nM.
